In article PMC9386001, “Identification of naturally occurring inhibitors in Xian-Ling-Gu-Bao capsule against the glucuronidation of estrogens” (Frontiers in Pharmacology, 2022):
Blank lines part the entries; values can stand above or below the molecule they belong to.

Key:
UGT1A10 [1] = target: T1, UGT1A10 (Homo sapiens, UniProt Q9HAW8); parameters: purchased Corning Biosciences; settings: substrate of UGT1A10; ref Xin et al., 2016; Gao et al., 2020; cited from earlier work
T1 sequence (Q9HAW8 26-530): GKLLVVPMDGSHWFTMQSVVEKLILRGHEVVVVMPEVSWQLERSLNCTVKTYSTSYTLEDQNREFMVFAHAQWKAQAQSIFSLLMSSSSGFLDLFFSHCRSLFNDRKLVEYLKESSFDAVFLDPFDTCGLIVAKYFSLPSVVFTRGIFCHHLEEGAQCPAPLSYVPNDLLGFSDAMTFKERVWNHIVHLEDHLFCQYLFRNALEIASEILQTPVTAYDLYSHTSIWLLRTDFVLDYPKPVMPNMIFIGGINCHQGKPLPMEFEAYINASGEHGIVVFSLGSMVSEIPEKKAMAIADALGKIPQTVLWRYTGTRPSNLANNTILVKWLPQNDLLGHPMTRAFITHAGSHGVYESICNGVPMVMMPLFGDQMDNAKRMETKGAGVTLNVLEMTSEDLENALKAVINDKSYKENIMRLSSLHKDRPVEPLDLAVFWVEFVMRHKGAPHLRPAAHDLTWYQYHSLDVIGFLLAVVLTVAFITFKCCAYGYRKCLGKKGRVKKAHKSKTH

[2] = Estrogen glucuronidation kinetics by HLM; assay type: in vitro ADME, human; settings: human, human liver microsomes, pH 7.4, HLM, read-out: CL int or CL max
Procedure: (§1) In brief, incubation mixtures (100 μL) contained Tris-HCl buffer solution (50 mM, pH = 7.4), microsomes (HLM, HIM, 0.5 mg/ml) or UGT enzymes (1 mg/ml), MgCl2 (0.88 mM), alamethicin (22 μg/ml), and D-saccharic-1,4-lactone (4.4 mM) and respective substrate. The volume of organic solvent in incubation mixtures was kept below 1%. After pre-incubation at 37°C for 5 min, the reaction was commenced with the addition of UDPGA (4 mM) and subsequently incubated at 37°C for a period. The reaction was terminated by adding 100 μL of cold acetonitrile. Then, the incubation mixtures were vortexed and centrifuged at 13,800 g for 10 min to collect the supernatant for analysis.
(§2) All experiments were performed in triplicate.
(§3) Glucuronidation rates were expressed as the amounts of formed metabolites per minute per milligram protein (pmol/min/mg protein) based on Eq. 1. Furthermore, kinetic characteristics were evaluated from the suitable curves based on the profile of the Eadie–Hofstee plot, and corresponding kinetic parameters were estimated using Eqs 2–4. Appropriated model fitting was performed by GraphPad Prism V5 software (San Diego, CA).
(§4) The intrinsic clearance (CL int ) was derived from V max /K m for Michaelis–Menten and substrate inhibition models, and the maximal clearance (CL max ) was obtained using Eq. 5 for Hill kinetics. Vg=Cs∗V/Cprotein∗T∗Vprotein. (1) V=Vmax×[S]/Km+[S], (2) V=Vmax×[S]/Km+[S](1+[S]/Ksi), (3) V=Vmax×[S]^n/S50n[…], (4) CLmax=Vmax/S50×n−1/n(n−1)^1/n. (5)

[3] = test system: human liver microsomes (HLM); assay: Estrogen glucuronidation kinetics by HLM; assay type: in vitro ADME; settings: HLM
Procedure: as §1, §2, §3, §4

[4] = Estrogen glucuronidation kinetics by HIM; assay type: in vitro ADME, human; settings: human, human intestine microsomes, pH 7.4, HIM, read-out: CL int or CL max
Procedure: as §2
(§5) Vg=Cs∗V/Cprotein∗T∗Vprotein. […] (5)

[5] = test system: human intestine microsomes (HIM); assay: Estrogen glucuronidation kinetics by HIM; assay type: in vitro ADME; settings: HIM
Procedure: as §2, §5

UGT2B7 = target: T2, UGT2B7 (Homo sapiens, UniProt P16662); assay: Estrogen glucuronidation kinetics by expressed UGT2B7; settings: recombinant (expressed) UGT2B7, pH 7.4
T2 sequence (P16662 24-529): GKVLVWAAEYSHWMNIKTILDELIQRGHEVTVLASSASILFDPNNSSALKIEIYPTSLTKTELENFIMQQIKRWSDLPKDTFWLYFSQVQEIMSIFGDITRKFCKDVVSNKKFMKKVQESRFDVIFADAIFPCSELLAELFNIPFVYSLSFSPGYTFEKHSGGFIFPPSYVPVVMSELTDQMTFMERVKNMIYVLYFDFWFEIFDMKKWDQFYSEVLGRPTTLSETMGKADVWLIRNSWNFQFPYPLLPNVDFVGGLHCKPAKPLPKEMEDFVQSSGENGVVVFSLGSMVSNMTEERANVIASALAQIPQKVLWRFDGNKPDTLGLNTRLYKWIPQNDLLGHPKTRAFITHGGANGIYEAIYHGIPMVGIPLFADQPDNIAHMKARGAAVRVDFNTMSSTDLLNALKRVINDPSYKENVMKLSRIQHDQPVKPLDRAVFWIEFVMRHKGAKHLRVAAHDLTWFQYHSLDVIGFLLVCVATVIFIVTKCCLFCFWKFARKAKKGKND

UGT1A1 = target: T3, UGT1A1 (Homo sapiens, UniProt P22309); assay: Estrogen glucuronidation kinetics by expressed UGT1A1; settings: 3-O-glucuronide formation
T3 sequence (P22309 26-533): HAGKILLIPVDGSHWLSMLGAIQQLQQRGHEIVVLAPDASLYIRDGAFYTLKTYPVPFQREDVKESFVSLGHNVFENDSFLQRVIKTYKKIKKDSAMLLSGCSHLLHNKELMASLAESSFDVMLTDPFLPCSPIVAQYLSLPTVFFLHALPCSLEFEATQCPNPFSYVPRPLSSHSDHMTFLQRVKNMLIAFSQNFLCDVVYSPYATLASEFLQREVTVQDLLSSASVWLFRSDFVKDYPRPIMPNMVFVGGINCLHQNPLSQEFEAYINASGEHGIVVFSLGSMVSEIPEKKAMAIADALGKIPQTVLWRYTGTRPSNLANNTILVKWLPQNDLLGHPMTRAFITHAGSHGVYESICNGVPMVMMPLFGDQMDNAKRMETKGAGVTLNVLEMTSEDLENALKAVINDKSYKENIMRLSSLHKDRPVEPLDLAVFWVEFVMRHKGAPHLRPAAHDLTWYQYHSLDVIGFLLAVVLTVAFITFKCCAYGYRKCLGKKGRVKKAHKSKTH
Procedure: as §1, §2, §3
(§6) The intrinsic clearance (CL int ) was derived from V max /K m for Michaelis–Menten and substrate inhibition models, and the maximal clearance (CL max ) was obtained using Eq. 5 for Hill kinetics. Vg=Cs∗V/Cprotein∗T∗Vprotein. […]

UGT1A10 [6] = target: T1, UGT1A10; assay: Glucuronidation kinetics by expressed UGT1A10
Procedure: as §1, with “The glucuronidation assay was conducted as described previously ([Qin et al., 2018]; [Xu et al., 2018]). In” for “In”
as §2, §3, §4

UGT1A3 = target: T4, UGT1A3 (Homo sapiens, UniProt P35503); assay: Estrogen glucuronidation kinetics by expressed UGT1A3; assay type: in vitro ADME
T4 construct: purchased Corning Biosciences
T4 sequence (P35503 29-534): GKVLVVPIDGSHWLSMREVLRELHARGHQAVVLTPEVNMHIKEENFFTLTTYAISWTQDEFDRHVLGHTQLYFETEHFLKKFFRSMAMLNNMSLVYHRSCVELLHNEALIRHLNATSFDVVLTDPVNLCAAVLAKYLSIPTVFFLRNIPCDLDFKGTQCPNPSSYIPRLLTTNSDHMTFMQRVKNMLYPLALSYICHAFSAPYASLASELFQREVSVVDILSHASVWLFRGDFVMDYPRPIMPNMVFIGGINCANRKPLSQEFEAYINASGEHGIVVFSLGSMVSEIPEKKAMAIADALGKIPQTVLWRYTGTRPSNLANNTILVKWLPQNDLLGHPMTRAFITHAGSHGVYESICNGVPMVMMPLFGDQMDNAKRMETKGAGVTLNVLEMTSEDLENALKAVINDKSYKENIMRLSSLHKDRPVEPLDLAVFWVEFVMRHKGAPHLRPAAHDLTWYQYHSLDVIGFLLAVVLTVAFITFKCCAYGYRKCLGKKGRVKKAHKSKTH
Procedure: as §1, §2, §3, §6

[7] = substrate: C[C@]12CC[C@@H]3c4ccc(O)cc4CC[C@H]3[C@@H]1CCC2=O; assay: as above; assay type: in vitro ADME, human; settings: other: UGT1A3; 3-O-glucuronide formation; pH 7.4; 37.0 °C
[8] = 3-O-glucuronide formation, Hill coefficient

Molecule: Cc1cc(=O)oc2cc(O)ccc12 [4-MU, 4-methylumbelliferone]
Km (UGT1A10 [1]): ~60 µM

microsomal CLint ([2]; 3-O-glucuronide formation): 1.58 ± 0.16 µL/min/mg | microsomal CLint ([2]; 16-O-glucuronide formation): 542.32 ± 0.05 µL/min/mg | K m or S50 ([3]; 3-O-glucuronide formation): 86.1 ± 12.39 µM | K m or S50 ([3]; 16-O-glucuronide formation): 11.91 ± 0.60 µM | microsomal CLint ([4]; 3-O-glucuronide formation): 10.74 ± 0.1 µL/min/mg | microsomal CLint ([4]; 16-O-glucuronide formation): 109.4 ± 0.04 µL/min/mg | K m or S50 ([5]; 3-O-glucuronide formation): 50.18 ± 4.40 µM | K m or S50 ([5]; 16-O-glucuronide formation): 11.59 ± 0.49 µM | microsomal CLint (UGT2B7): 793.8 ± 0.07 µL/min/mg
Molecule: C[C@]12CC[C@@H]3c4ccc(O)cc4CC[C@H]3[C@@H]1C[C@@H](O)[C@@H]2O [E3, estriol]

K m or S50 (UGT1A1): 11.08 ± 0.48 µM | V max (UGT1A1): 754.9 ± 15.14 pmol/min/mg | K m or S50 (UGT1A10 [6]; 3-O-glucuronide formation): 113.2 ± 46.66 µM | Ki (UGT1A10 [6]; 3-O-glucuronide formation, substrate inhibition constant): 71.98 ± 35.77 µM | K m or S50 (UGT1A10 [6]; 17-O-glucuronide formation): 16.39 ± 3.53 µM
Molecule: C[C@]12CC[C@@H]3c4ccc(O)cc4CC[C@H]3[C@@H]1CC[C@@H]2O [E2, β-estradiol]

K m or S50 ([3]; 3-O-glucuronide formation): 6.87 ± 0.59 µM | microsomal CLint ([4]; 3-O-glucuronide formation): 25.25 ± 0.24 µL/min/mg | K m or S50 ([5]; 3-O-glucuronide formation): 8.82 ± 0.37 µM | h [5, 8]: 1.63 ± 0.09 | h (UGT1A3; [8]): 2.09 ± 0.16 | microsomal CLint (UGT1A3; human, recombinant (expressed) UGT1A3, pH 7.4, 3-O-glucuronide formation, read-out: CL int or CL max): 11.7 ± 0.95 µL/min/mg
Molecule: C[C@]12CC[C@@H]3c4ccc(O)cc4CC[C@H]3[C@@H]1CCC2=O [E1, Estrone]

B1: UGT1A3 (Homo sapiens) (protein)
chain: GKVLVVPIDGSHWLSMREVLRELHARGHQAVVLTPEVNMHIKEENFFTLTTYAISWTQDEFDRHVLGHTQLYFETEHFLKKFFRSMAMLNNMSLVYHRSCVELLHNEALIRHLNATSFDVVLTDPVNLCAAVLAKYLSIPTVFFLRNIPCDLDFKGTQCPNPSSYIPRLLTTNSDHMTFMQRVKNMLYPLALSYICHAFSAPYASLASELFQREVSVVDILSHASVWLFRGDFVMDYPRPIMPNMVFIGGINCANRKPLSQEFEAYINASGEHGIVVFSLGSMVSEIPEKKAMAIADALGKIPQTVLWRYTGTRPSNLANNTILVKWLPQNDLLGHPMTRAFITHAGSHGVYESICNGVPMVMMPLFGDQMDNAKRMETKGAGVTLNVLEMTSEDLENALKAVINDKSYKENIMRLSSLHKDRPVEPLDLAVFWVEFVMRHKGAPHLRPAAHDLTWYQYHSLDVIGFLLAVVLTVAFITFKCCAYGYRKCLGKKGRVKKAHKSKTH
notes: purchased Corning Biosciences
K0.5 [7]: 9.23 ± 0.39 µM
